Bridges are numbered along the chain shown (N, C = ends). Where no end group is shown, it is not given here.
Tested on: H-125 cells (Non-Small Lung Cell Cancer)
Assay: antitumor effect in human tumors implanted in nude mice
Assay type: in vivo, BalbC nude mice
Settings: H-125 subcutaneous, 1 to 10 mg/Kg every other day for one month, FIG. 6
Experimental: For these experiments, 6-8 week old female BalbC nude mice were used. The tumor implantation was performed using H-125 cells (Non-Small Lung Cell Cancer) that were resuspended in saline solution (PBS) at 1000 000 cells/ml. Cell suspension was inoculated subcutaneously in the abdomen. Peptide administration (sequence 1 on the list) was made together with the cells and continued every other day until completing one month of treatment. In this assay, doses ranging between 1 and 10 mg/Kg of weight were evaluated. To examine the antitumor effect, parameters like tumor mass and survival of the animals were evaluated.

## CSVRQGPVQKC (disulfide 1-11 (inferred)) [sequence 1 on the list]
  inhibition of tumor progression: effective in terms of the inhibition of tumor progression

— patent US7947287B2, “Peptides for the treatment of cancer associated with the human papilloma virus (HPV) and other epithelial tumors” (Centro de Ingenieria Genetica y Biotecnolgia, priority 2001, dated 2011)
